Structures are written as SMILES.

The first assay relates to IFNα-stimulated Kit225 T cells with STAT-dependent luciferase reporter. The assay can be described thus: Kit225 T cell assay, STAT-dependent luciferase reporter, IFNα stimulated. The settings on record: 200 U/mL human recombinant IFNα, 5-6 hours, read-out: IFNa Kit225 Reporter, LE (IC50). It counts as cell-based, human. Here is the method:
(§1) Kit225 T cells with a stably-integrated STAT-dependent luciferase reporter were plated in RPMI (GIBCO) containing 10% heat-inactivated FBS (GIBCO) and 100 U/mL PenStrep (GIBCO). The cells were then stimulated with either 20 ng/mL human recombinant IL-23 or 200 U/mL human recombinant IFNα (PBL InterferonSource) for 5-6 hours. Luciferase expression was measured using the STEADY-GLO® Luciferase Assay System (PROMEGA®) according to the manufacturer's instructions.
On the technique in general: Reporter assays use an easily measured gene product as a stand-in for the process of interest.
With `CNc1cc(Nc2cccn(-c3ccccc3)c2=O)nn2c(C(=O)NC3(C#N)CCC3)cnc12` [Example 148], the half-inhibitory concentration (IC50) (usually the point on the concentration scale where inhibition reaches its midpoint) was determined as 280 nM.
On to `CNc1cc(Nc2cc(F)cn(-c3ccccn3)c2=O)nn2c(C(=O)NC3CC3)cnc12` [Example 149], for which the IC50 worked out at 60 nM.
Regarding `CNc1cc(Nc2cc(F)cn(-c3ccccn3)c2=O)nn2c(C(=O)NC3CCC3)cnc12` [Example 150], the IC50 turned out to be 20 nM.
Still for that read-out and setting: under `CNc1cc(Nc2cc(F)cn(-c3ccccn3)c2=O)nn2c(C(=O)N[C@@H]3C[C@@H]3F)cnc12` [Example 151] stands 20 nM.
In the case of `CNc1cc(Nc2cccn(-c3ccccc3F)c2=O)nn2c(C(=O)NC3CC3)cnc12` [Example 152], the half-maximal inhibitory concentration (IC50) came out at 120 nM.
As for `CNc1cc(Nc2cccn(-c3cc(C)n(C)n3)c2=O)nn2c(C(=O)NC3CC3)cnc12` [Example 154], the IC50 stood at 30 nM.
On to `CNc1cc(Nc2cccn(-c3ccccc3F)c2=O)nn2c(C(=O)NC3(C#N)CC3)cnc12` [Example 156], for which the IC50 amounted to 60 nM.
`CNc1cc(Nc2cccn(-c3cc(C)on3)c2=O)nn2c(C(=O)NC3CCC3)cnc12` [Example 157]: the IC50 worked out at 20 nM.
The same measure, in the same setting: the same measure for `CNc1cc(Nc2cccn(-c3ccn(C)n3)c2=O)nn2c(C(=O)NC3CC3)cnc12` [Example 158]: 100 nM; for `CNc1cc(Nc2cccn(-c3ccn(C)n3)c2=O)nn2c(C(=O)NC3CCC3)cnc12` [Example 159]: 40 nM; for `CNc1cc(Nc2cccn(-c3cc(C)n(C)n3)c2=O)nn2c(C(=O)N[C@@H]3C[C@@H]3F)cnc12` [Example 160]: 30 nM.
On the same count and under the same terms, under `CNc1cc(Nc2cccn(C3(C)CC3)c2=O)nn2c(C(=O)NC3CC3)cnc12` [Example 161] stands 340 nM; under `CNc1cc(Nc2cccn(C3(C)CC3)c2=O)nn2c(C(=O)NC3(C#N)CC3)cnc12` [Example 162], 250 nM; under `CNc1cc(Nc2cccn(-c3ccn(C4CC4)n3)c2=O)nn2c(C(=O)N[C@@H]3C[C@@H]3F)cnc12` [Example 164], 20 nM.
For the compound `CNc1cc(Nc2cccn(-c3ccn(C4CC4)n3)c2=O)nn2c(C(=O)NC3CC3)cnc12` [Example 165], the IC50 worked out at 130 nM.
In the case of `CNc1cc(Nc2cccn(-c3ccn(C4CC4)n3)c2=O)nn2c(C(=O)NC3CCC3)cnc12` [Example 166], the IC50 worked out at 50 nM.
With `CNc1cc(Nc2cccn(-c3cccc(F)n3)c2=O)nn2c(C(=O)NC3(C#N)CC3)cnc12` [Example 167], the IC50 is 130 nM.
For `CNc1cc(Nc2cccn(-c3ccn(C)n3)c2=O)nn2c(C(=O)N[C@@H]3C[C@@H]3F)cnc12` [Example 169], the 50% inhibitory concentration (IC50) turned out to be 40 nM.
For the compound `CNc1cc(Nc2cccn(-c3ncccn3)c2=O)nn2c(C(=O)NC3CCCC3)cnc12` [Example 170], the 50% inhibitory concentration (IC50) came out at 370 nM.
Consider `CNc1cc(Nc2cccn(-c3ncc(F)cn3)c2=O)nn2c(C(=O)NC3CC3)cnc12` [Example 171], for which the concentration for half-maximal inhibition (IC50) stood at 140 nM.
On to `CNc1cc(Nc2cccn(-c3ncc(F)cn3)c2=O)nn2c(C(=O)NC3CCCC3)cnc12` [Example 172], for which the IC50 came to 180 nM.
As to `CNc1cc(Nc2cccn(-c3ncc(F)cn3)c2=O)nn2c(C(=O)NC3CCC3)cnc12` [Example 173], the half-inhibitory concentration (IC50) was found to be 50 nM.
Same read-out and setting: the same measure for `CNc1cc(Nc2cccn(-c3ncc(F)cn3)c2=O)nn2c(C(=O)N[C@@H]3C[C@@H]3F)cnc12` [Example 174]: 40 nM.
Consider `CNc1cc(Nc2cccn(-c3ncc(C(F)(F)F)cn3)c2=O)nn2c(C(=O)NC3CC3)cnc12` [Example 175], for which the IC50 turned out to be 110 nM.
Take `CNc1cc(Nc2ccnn(-c3ccccc3)c2=O)nn2c(C(=O)NC3CC3)cnc12` [Example 179]: the IC50 was found to be 570 nM.
For the compound `CCc1ccc(-n2cccc(Nc3cc(NC)c4ncc(C(=O)N[C@@H]5C[C@@H]5F)n4n3)c2=O)nn1` [Example 181], the IC50 was 350 nM.

Another assay relates to IL-23-stimulated Kit225 T cells with STAT-dependent luciferase reporter. Put plainly: Kit225 T cell assay, STAT-dependent luciferase reporter, IL-23 stimulated. The class given is cell-based, human. The settings on record: 20 ng/mL human recombinant IL-23, 5-6 hours, read-out: IL-23 Kit225 Reporter, LE (IC50). The protocol:
as §1
Take `CNc1cc(Nc2cccn(-c3ccccc3)c2=O)nn2c(C(=O)NC3(C#N)CCC3)cnc12` [Example 148]: the IC50 turned out to be 120 nM.
Turning to `CNc1cc(Nc2cc(F)cn(-c3ccccn3)c2=O)nn2c(C(=O)NC3CC3)cnc12` [Example 149], the IC50 was found to be 70 nM.
Still for that read-out and setting: the same measure for `CNc1cc(Nc2cc(F)cn(-c3ccccn3)c2=O)nn2c(C(=O)NC3CCC3)cnc12` [Example 150]: 60 nM; for `CNc1cc(Nc2cc(F)cn(-c3ccccn3)c2=O)nn2c(C(=O)N[C@@H]3C[C@@H]3F)cnc12` [Example 151]: 30 nM.
The same measure, in the same setting: the same measure for `CNc1cc(Nc2cccn(-c3ccccc3F)c2=O)nn2c(C(=O)NC3CC3)cnc12` [Example 152]: 360 nM; for `CNc1cc(Nc2cccn(-c3cc(C)n(C)n3)c2=O)nn2c(C(=O)NC3CC3)cnc12` [Example 154]: 40 nM.
In the case of `CNc1cc(Nc2cccn(-c3ccccc3F)c2=O)nn2c(C(=O)NC3(C#N)CC3)cnc12` [Example 156], the IC50 amounted to 80 nM.
Regarding `CNc1cc(Nc2cccn(-c3cc(C)on3)c2=O)nn2c(C(=O)NC3CCC3)cnc12` [Example 157], the IC50 came out at 30 nM.
On to `CNc1cc(Nc2cccn(-c3ccn(C)n3)c2=O)nn2c(C(=O)NC3CC3)cnc12` [Example 158], for which the IC50 came out at 130 nM.
Same read-out and setting: the same measure for `CNc1cc(Nc2cccn(-c3ccn(C)n3)c2=O)nn2c(C(=O)NC3CCC3)cnc12` [Example 159]: 30 nM; for `CNc1cc(Nc2cccn(-c3cc(C)n(C)n3)c2=O)nn2c(C(=O)N[C@@H]3C[C@@H]3F)cnc12` [Example 160]: 50 nM.
Turning to `CNc1cc(Nc2cccn(C3(C)CC3)c2=O)nn2c(C(=O)NC3CC3)cnc12` [Example 161], the concentration for half-maximal inhibition (IC50) worked out at 710 nM.
On the same count and under the same terms, the same measure for `CNc1cc(Nc2cccn(C3(C)CC3)c2=O)nn2c(C(=O)NC3(C#N)CC3)cnc12` [Example 162]: 650 nM; for `CNc1cc(Nc2cccn(-c3ccn(C4CC4)n3)c2=O)nn2c(C(=O)N[C@@H]3C[C@@H]3F)cnc12` [Example 164]: 50 nM; for `CNc1cc(Nc2cccn(-c3ccn(C4CC4)n3)c2=O)nn2c(C(=O)NC3CC3)cnc12` [Example 165]: 430 nM.
Turning to `CNc1cc(Nc2cccn(-c3ccn(C4CC4)n3)c2=O)nn2c(C(=O)NC3CCC3)cnc12` [Example 166], the IC50 was 290 nM.
In the case of `CNc1cc(Nc2cccn(-c3cccc(F)n3)c2=O)nn2c(C(=O)NC3(C#N)CC3)cnc12` [Example 167], the half-inhibitory concentration (IC50) was 100 nM.
The same measure, in the same setting: under `CNc1cc(Nc2cccn(-c3ccn(C)n3)c2=O)nn2c(C(=O)N[C@@H]3C[C@@H]3F)cnc12` [Example 169] stands 80 nM; under `CNc1cc(Nc2cccn(-c3ncccn3)c2=O)nn2c(C(=O)NC3CCCC3)cnc12` [Example 170], 190 nM.
In the case of `CNc1cc(Nc2cccn(-c3ncc(F)cn3)c2=O)nn2c(C(=O)NC3CC3)cnc12` [Example 171], the IC50 was 210 nM.
Same read-out and setting: the same measure for `CNc1cc(Nc2cccn(-c3ncc(F)cn3)c2=O)nn2c(C(=O)NC3CCCC3)cnc12` [Example 172]: 260 nM; for `CNc1cc(Nc2cccn(-c3ncc(F)cn3)c2=O)nn2c(C(=O)NC3CCC3)cnc12` [Example 173]: 50 nM.
With `CNc1cc(Nc2cccn(-c3ncc(F)cn3)c2=O)nn2c(C(=O)N[C@@H]3C[C@@H]3F)cnc12` [Example 174], the half-inhibitory concentration (IC50) was 50 nM.
As for `CNc1cc(Nc2cccn(-c3ncc(C(F)(F)F)cn3)c2=O)nn2c(C(=O)NC3CC3)cnc12` [Example 175], the half-inhibitory concentration (IC50) stood at 310 nM.
Turning to `CNc1cc(Nc2ccnn(-c3ccccc3)c2=O)nn2c(C(=O)NC3CC3)cnc12` [Example 179], the 50% inhibitory concentration (IC50) was determined as 480 nM.
Take `CCc1ccc(-n2cccc(Nc3cc(NC)c4ncc(C(=O)N[C@@H]5C[C@@H]5F)n4n3)c2=O)nn1` [Example 181]: the half-maximal inhibitory concentration (IC50) came out at 290 nM.

The values are drawn from patent US10273237B2, “Imidazopyridazine compounds useful as modulators of IL-12, IL-23 and/or IFN-α responses” (BRISTOL-MYERS SQUIBB COMPANY, priority 2013, dated 2019).
